Source: the supplement of paper PMC10307832

What was measured:
Test in all cases: relative viability (nuclei count vs DMSO), 5 days (fraction); higher = more cells survive
LC-2-ad = tested on: LC-2-ad
How it was run: (§1)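 Relative viability divides the nuclei count in treated wells by that in vehicle wells. Lung cancer cell lines were seeded in 1536-well plates, dosed by pin tool the next day, and fixed and stained after 5 days in one step with final 0.05% Triton X-100, 1% formaldehyde and 1 ug/ml Hoechst. Dosing was a single drug or a fixed anchor-drug dose plus five library-drug doses (not always all listed) in √10 steps, and values are medians of duplicate plates imaged at 4×.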

NCI-H838 = tested on: NCI-H838
How it was run: as §1

LK-2 = tested on: LK-2
How it was run: as §1

SK-LU-1 = tested on: SK-LU-1
How it was run: as §1

NCI-H2009 = tested on: NCI-H2009
How it was run: as §1

ChaGo-K-1 = tested on: ChaGo-K-1
How it was run: as §1

NCI-H2405 = tested on: NCI-H2405
How it was run: as §1

HARA = tested on: HARA
How it was run: as §1

EMC-BAC-2 = tested on: EMC-BAC-2
How it was run: as §1

NCI-H2023 = tested on: NCI-H2023
How it was run: as §1

A-427 = tested on: A-427
How it was run: as §1

ABC-1 = tested on: ABC-1
How it was run: as §1

HCC-78 = tested on: HCC-78
How it was run: as §1

NCI-H1734 = tested on: NCI-H1734
How it was run: as §1

HCC-15 = tested on: HCC-15
How it was run: as §1

NCI-H1650 = tested on: NCI-H1650
How it was run: as §1

NCI-H1993 = tested on: NCI-H1993
How it was run: as §1

COR-L23 = tested on: COR-L23
How it was run: as §1

NCI-H1944 = tested on: NCI-H1944
How it was run: as §1

NCI-H23 = tested on: NCI-H23
How it was run: as §1

UMC-11 = tested on: UMC-11
How it was run: as §1

HCC-366 = tested on: HCC-366
How it was run: as §1

NCI-H1793 = tested on: NCI-H1793
How it was run: as §1

NCI-H2228 = tested on: NCI-H2228
How it was run: as §1

COc1cc(N2CCC(C(N)=O)CC2)ccc1Nc1nc(N)c(Cl)c(Nc2ccccc2S(=O)(=O)C(C)C)n1 [HG-5-88-01] + N=C(N)NC(=N)NCCc1ccccc1 [Phenformin] (partner 250 µM)
relative viability (LC-2-ad; first compound 0.04 µM): 0.717 | relative viability (LC-2-ad; first compound 0.1265 µM): 0.69 | relative viability (LC-2-ad; first compound 0.4 µM): 0.598 | relative viability (LC-2-ad; first compound 1.265 µM): 0.472 | relative viability (LC-2-ad; first compound 4 µM): 0.415 | relative viability (NCI-H838; first compound 0.04 µM): 0.505 | relative viability (NCI-H838; first compound 0.1265 µM): 0.558 | relative viability (NCI-H838; first compound 0.4 µM): 0.411 | relative viability (NCI-H838; first compound 1.265 µM): 0.368 | relative viability (NCI-H838; first compound 4 µM): 0.313 | relative viability (LK-2; first compound 0.04 µM): 0.516 | relative viability (LK-2; first compound 0.1265 µM): 0.394 | relative viability (LK-2; first compound 0.4 µM): 0.176 | relative viability (LK-2; first compound 1.265 µM): 0.352 | relative viability (LK-2; first compound 4 µM): 0.198 | relative viability (SK-LU-1; first compound 0.04 µM): 0.581 | relative viability (SK-LU-1; first compound 0.1265 µM): 0.594 | relative viability (SK-LU-1; first compound 0.4 µM): 0.507 | relative viability (SK-LU-1; first compound 1.265 µM): 0.463 | relative viability (SK-LU-1; first compound 4 µM): 0.288 | relative viability (NCI-H2009; first compound 0.04 µM): 0.475 | relative viability (NCI-H2009; first compound 0.1265 µM): 0.527 | relative viability (NCI-H2009; first compound 0.4 µM): 0.534 | relative viability (NCI-H2009; first compound 1.265 µM): 0.484 | relative viability (NCI-H2009; first compound 4 µM): 0.366 | relative viability (ChaGo-K-1; first compound 0.04 µM): 0.586 | relative viability (ChaGo-K-1; first compound 0.1265 µM): 0.51 | relative viability (ChaGo-K-1; first compound 0.4 µM): 0.449 | relative viability (ChaGo-K-1; first compound 1.265 µM): 0.525 | relative viability (ChaGo-K-1; first compound 4 µM): 0.383 | relative viability (NCI-H2405; first compound 0.04 µM): 0.46 | relative viability (NCI-H2405; first compound 0.1265 µM): 0.484 | relative viability (NCI-H2405; first compound 0.4 µM): 0.469 | relative viability (NCI-H2405; first compound 1.265 µM): 0.38 | relative viability (NCI-H2405; first compound 4 µM): 0.432 | relative viability (HARA; first compound 0.04 µM): 0.439 | relative viability (HARA; first compound 0.1265 µM): 0.513 | relative viability (HARA; first compound 0.4 µM): 0.48 | relative viability (HARA; first compound 1.265 µM): 0.432 | relative viability (HARA; first compound 4 µM): 0.324 | relative viability (EMC-BAC-2; first compound 0.04 µM): 0.541 | relative viability (EMC-BAC-2; first compound 0.1265 µM): 0.491 | relative viability (EMC-BAC-2; first compound 0.4 µM): 0.442 | relative viability (EMC-BAC-2; first compound 1.265 µM): 0.507 | relative viability (EMC-BAC-2; first compound 4 µM): 0.486 | relative viability (NCI-H2023; first compound 0.04 µM): 0.521 | relative viability (NCI-H2023; first compound 0.1265 µM): 0.466 | relative viability (NCI-H2023; first compound 0.4 µM): 0.473 | relative viability (NCI-H2023; first compound 1.265 µM): 0.411 | relative viability (NCI-H2023; first compound 4 µM): 0.34 | relative viability (A-427; first compound 0.04 µM): 0.36 | relative viability (A-427; first compound 0.1265 µM): 0.336 | relative viability (A-427; first compound 0.4 µM): 0.344 | relative viability (A-427; first compound 1.265 µM): 0.367 | relative viability (A-427; first compound 4 µM): 0.214 | relative viability (ABC-1; first compound 0.04 µM): 0.272 | relative viability (ABC-1; first compound 0.1265 µM): 0.233 | relative viability (ABC-1; first compound 0.4 µM): 0.2 | relative viability (ABC-1; first compound 1.265 µM): 0.207 | relative viability (ABC-1; first compound 4 µM): 0.24 | relative viability (HCC-78; first compound 0.04 µM): 0.602 | relative viability (HCC-78; first compound 0.1265 µM): 0.584 | relative viability (HCC-78; first compound 0.4 µM): 0.447 | relative viability (HCC-78; first compound 1.265 µM): 0.306 | relative viability (HCC-78; first compound 4 µM): 0.324 | relative viability (NCI-H1734; first compound 0.04 µM): 0.345 | relative viability (NCI-H1734; first compound 0.1265 µM): 0.364 | relative viability (NCI-H1734; first compound 0.4 µM): 0.333 | relative viability (NCI-H1734; first compound 1.265 µM): 0.371 | relative viability (NCI-H1734; first compound 4 µM): 0.355 | relative viability (HCC-15; first compound 0.04 µM): 0.528 | relative viability (HCC-15; first compound 0.1265 µM): 0.488 | relative viability (HCC-15; first compound 0.4 µM): 0.4 | relative viability (HCC-15; first compound 1.265 µM): 0.461 | relative viability (HCC-15; first compound 4 µM): 0.231 | relative viability (NCI-H1650; first compound 0.04 µM): 0.452 | relative viability (NCI-H1650; first compound 0.1265 µM): 0.386 | relative viability (NCI-H1650; first compound 0.4 µM): 0.254 | relative viability (NCI-H1650; first compound 1.265 µM): 0.236 | relative viability (NCI-H1650; first compound 4 µM): 0.259 | relative viability (NCI-H1993; first compound 0.04 µM): 0.501 | relative viability (NCI-H1993; first compound 0.1265 µM): 0.471 | relative viability (NCI-H1993; first compound 0.4 µM): 0.438 | relative viability (NCI-H1993; first compound 1.265 µM): 0.558 | relative viability (NCI-H1993; first compound 4 µM): 0.527 | relative viability (COR-L23; first compound 0.04 µM): 0.458 | relative viability (COR-L23; first compound 0.1265 µM): 0.407 | relative viability (COR-L23; first compound 0.4 µM): 0.406 | relative viability (COR-L23; first compound 1.265 µM): 0.377 | relative viability (COR-L23; first compound 4 µM): 0.39 | relative viability (NCI-H1944; first compound 0.04 µM): 0.213 | relative viability (NCI-H1944; first compound 0.1265 µM): 0.241 | relative viability (NCI-H1944; first compound 0.4 µM): 0.262 | relative viability (NCI-H1944; first compound 1.265 µM): 0.209 | relative viability (NCI-H1944; first compound 4 µM): 0.22 | relative viability (NCI-H23; first compound 0.04 µM): 0.767 | relative viability (NCI-H23; first compound 0.1265 µM): 0.833 | relative viability (NCI-H23; first compound 0.4 µM): 0.786 | relative viability (NCI-H23; first compound 1.265 µM): 0.868 | relative viability (NCI-H23; first compound 4 µM): 0.441 | relative viability (UMC-11; first compound 0.04 µM): 0.336 | relative viability (UMC-11; first compound 0.1265 µM): 0.419 | relative viability (UMC-11; first compound 1.265 µM): 0.359 | relative viability (UMC-11; first compound 4 µM): 0.263 | relative viability (HCC-366; first compound 0.04 µM): 0.685 | relative viability (HCC-366; first compound 0.1265 µM): 0.634 | relative viability (HCC-366; first compound 0.4 µM): 0.581 | relative viability (HCC-366; first compound 1.265 µM): 0.681 | relative viability (HCC-366; first compound 4 µM): 0.476 | relative viability (NCI-H1793; first compound 0.1265 µM): 0.431 | relative viability (NCI-H1793; first compound 0.4 µM): 0.375 | relative viability (NCI-H1793; first compound 4 µM): 0.221 | relative viability (NCI-H2228; first compound 0.04 µM): 0.146 | relative viability (NCI-H2228; first compound 0.1265 µM): 0.124 | relative viability (NCI-H2228; first compound 0.4 µM): 0.174 | relative viability (NCI-H2228; first compound 1.265 µM): 0.0974 | relative viability (NCI-H2228; first compound 4 µM): 0.0828
